# Measurements as given in US20090291945A1, “CYSTEINE PROTEASE INHIBITORS” (Teijin Pharma Limited, priority 2008, published 2009).
# Target: T1, cathepsin K (Homo sapiens, UniProt P43235)
# T1 construct: the active enzyme was obtained as the enzyme fraction by using detergent containing lysis buffer; made in house; host or cells: HEK293T (GenHunter Corporation), transient expression; detergent lysate used as enzyme fraction
# T1 sequence (P43235 115-329): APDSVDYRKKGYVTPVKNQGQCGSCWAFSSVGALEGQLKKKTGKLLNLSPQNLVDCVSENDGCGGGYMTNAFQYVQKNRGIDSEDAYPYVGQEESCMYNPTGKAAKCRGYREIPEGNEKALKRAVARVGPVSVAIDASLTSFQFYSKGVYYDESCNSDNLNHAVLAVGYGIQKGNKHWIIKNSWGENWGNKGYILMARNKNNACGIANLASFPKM
# Assay: Cathepsin K inhibitory activity (fluorescent substrate Z-Leu-Arg-MCA)
# Type: biochemical
# Details: enzyme expressed in HEK293T; 15 min preincubation, 30 min reaction at room temperature, pH 5.5; read-out: Activity Intensity (cathepsin K inhibitory activity, pIC50 class) (converted)
# Description: Cathepsin K inhibitory activities of the compounds synthesized according to the methods of the above examples were measured.
# Cathepsin K used for evaluation of inhibitory activity was transiently expressed in an animal cell HEK293T (made by GenHunter Corporation) and the active enzyme was obtained as the enzyme fraction by using detergent containing lysis buffer.
# The enzyme solution A was prepared at 2.1 times final concentration by diluting the enzyme fraction with assay buffer (50 mM sodium acetate, 50 mM sodium chloride, 2 mM DTT, pH 5.5). The test compound solutions B were prepared at 50 times final target concentrations by dimethylsulfoxide (DMSO). As a substrate solution C, a solution of a fluorescent substrate, benzyloxycarbonyl-L-leucyl-L-arginyl-4-methyl-coumaryl-7-amide (Z-Leu-Arg-MCA (Peptide Institute Inc.), was prepared at 10 μM by an assay buffer.
# To the enzyme solution A (38.4 μL) were added the test compound solutions B (1.6 μL) and mixed individually. The mixtures were incubated at room temperature for 15 minutes. To the incubated solutions were added the substrate solution C (40 μL) and the mixtures were reacted at room temperature for 30 minutes respectively. The fluorescence intensities of the enzyme reaction solutions were measured at excitation wavelength of 355 nm and measurement wavelength of 460 nm and the enzyme activities were calculated from these fluorescence intensities caused by 7-amino-4-methylcoumarine released. The enzyme activity with using DMSO instead of the test compound solution B was taken as 100% and the inhibitory rates at each concentration of the test compound were calculated. The […] response curve was fitted to the plots. The 50% inhibitory concentration against cathepsin K was calculated from this curve.
# Note that the symbols (+, ++, and +++) in this table represent the inhibitory activity values as below. Here, pIC50 is the value representing a negative logarithm of IC50, (−log10(IC50)). IC50 is a 50% inhibitory concentration.
row,IC50 [nM],Structure (SMILES)
1,≤ 3.16,COc1ccc(NC[C@H](CC(C)C)NC(=O)[C@H](CC(C)C)N[C@@H](c2ccccc2)C(F)(F)F)c(OC)c1 [Compound 64]
2,≤ 3.16,COc1ccc([C@H](N[C@@H](CC(C)C)C(=O)N[C@H](CNc2ccc(OC)cc2OC)CC(C)C)C(F)(F)F)cc1 [Compound 65]
3,3.16 to 31.6,COc1ccc(NC[C@H](CCSC)NC(=O)[C@H](CC(C)C)N[C@@H](c2ccccc2)C(F)(F)F)c(OC)c1 [Compound 66]
4,3.16 to 31.6,COc1ccc([C@H](N[C@@H](CC(C)C)C(=O)N[C@@H](CCSC)CNc2ccc(OC)cc2OC)C(F)(F)F)cc1 [Compound 67]
5,≤ 3.16,CC(C)C[C@H](N[C@@H](c1ccccc1)C(F)(F)F)C(=O)N[C@@H](CCC(=O)OCc1ccccc1)CNc1ccc(N2CCOCC2)cc1 [Compound 68]
6,≤ 3.16,CC(C)C[C@H](N[C@@H](c1ccccc1)C(F)(F)F)C(=O)N[C@H](CNc1ccc(N2CCOCC2)cc1)CC(=O)OCc1ccccc1 [Compound 69]
7,≤ 3.16,COc1ccc(NC[C@H](C)NC(=O)[C@H](CC(C)C)N[C@@H](c2ccccc2)C(F)(F)F)c(OC)c1 [Compound 70]
8,≤ 3.16,CC(C)C[C@H](N[C@@H](c1ccccc1)C(F)(F)F)C(=O)N[C@@H](C)CNc1ccc(N2CCOCC2)cc1 [Compound 71]
9,≤ 3.16,CC(C)C[C@H](N[C@@H](c1ccc(=O)[nH]c1)C(F)(F)F)C(=O)N[C@@H](C)CNc1ccc(N2CCOCC2)cc1 [Compound 72]
10,≤ 3.16,CC(C)C[C@H](N[C@@H](c1ccc(S(C)(=O)=O)cc1)C(F)(F)F)C(=O)N[C@@H](C)CNc1ccc(N2CCOCC2)cc1 [Compound 73]
11,≤ 3.16,CC(C)C[C@H](N[C@@H](c1cccnc1)C(F)(F)F)C(=O)N[C@@H](C)CNc1ccc(N2CCOCC2)cc1 [Compound 74]
12,≤ 3.16,COc1ccc([C@H](N[C@@H](CC(C)C)C(=O)N[C@@H](C)CNc2ccc(N3CCOCC3)cc2)C(F)(F)F)cn1 [Compound 75]
13,3.16 to 31.6,COc1ccc(NC[C@H](C)NC(=O)[C@H](CC(C)C)N[C@@H](c2ccc(=O)[nH]c2)C(F)(F)F)c(OC)c1 [Compound 76]
14,3.16 to 31.6,COc1ccc(NC[C@H](C)NC(=O)[C@H](CC(C)C)N[C@@H](c2ccc(S(C)(=O)=O)cc2)C(F)(F)F)c(OC)c1 [Compound 77]
15,3.16 to 31.6,COc1ccc(NC[C@H](C)NC(=O)[C@H](CC(C)C)N[C@@H](c2cccnc2)C(F)(F)F)c(OC)c1 [Compound 78]
16,3.16 to 31.6,COc1ccc(NC[C@H](C)NC(=O)[C@H](CC(C)C)N[C@@H](c2ccc(OC)nc2)C(F)(F)F)c(OC)c1 [Compound 79]
17,3.16 to 31.6,COc1ccc(NC[C@H](CCS(C)(=O)=O)NC(=O)[C@H](CC(C)C)N[C@@H](c2ccccc2)C(F)(F)F)c(OC)c1 [Compound 80]
18,3.16 to 31.6,COc1ccc(NC[C@H](CCS(C)(=O)=O)NC(=O)[C@H](CC(C)C)N[C@@H](c2ccc(S(C)(=O)=O)cc2)C(F)(F)F)c(OC)c1 [Compound 82]
19,3.16 to 31.6,COc1ccc(NC[C@H](CCS(C)(=O)=O)NC(=O)[C@H](CC(C)C)N[C@@H](c2cccnc2)C(F)(F)F)c(OC)c1 [Compound 83]
20,31.6 to 10000,COc1ccc(NC[C@H](CCS(C)(=O)=O)NC(=O)[C@H](CC(C)C)N[C@@H](c2ccc(OC)nc2)C(F)(F)F)c(OC)c1 [Compound 84]
21,≤ 3.16,CC[C@@H](CNc1ccc(OCCCC(=O)OC)cc1OC)NC(=O)[C@H](CC(C)C)N[C@@H](c1ccccc1)C(F)(F)F [Compound 85]
22,≤ 3.16,CCOC(=O)CCCCOc1ccc(NC[C@H](CC)NC(=O)[C@H](CC(C)C)N[C@@H](c2ccccc2)C(F)(F)F)c(OC)c1 [Compound 86]
23,≤ 3.16,CC(C)C[C@H](N[C@@H](c1ccccc1)C(F)(F)F)C(=O)N[C@@H](CCOCc1ccccc1)CNc1ccc(N2CCOCC2)cc1 [Compound 87]
24,31.6 to 10000,CC[C@@H](CNc1ccccc1N1CCOCC1)NC(=O)[C@H](CC(C)C)N[C@@H](c1ccccc1)C(F)(F)F [Compound 88]
25,≤ 3.16,CC[C@@H](CNc1ccc(OCC(=O)N(C)OC)cc1OC)NC(=O)[C@H](CC(C)C)N[C@@H](c1ccccc1)C(F)(F)F [Compound 89]
26,31.6 to 10000,CC[C@@H](CNc1ccc(OCC(F)(F)F)cc1)NC(=O)[C@H](CC(C)C)N[C@@H](c1ccccc1)C(F)(F)F [Compound 90]
27,≤ 3.16,CC(C)C[C@H](N[C@@H](c1ccccc1)C(F)(F)F)C(=O)N[C@@H](CCCC(=O)OC(C)(C)C)CNc1ccc(N2CCOCC2)cc1 [Compound 91]
28,≤ 3.16,CC(C)C[C@H](N[C@@H](c1ccccc1)C(F)(F)F)C(=O)N[C@@H](CCC#N)CNc1ccc(N2CCOCC2)cc1 [Compound 92]
29,≤ 3.16,CC(C)(F)C[C@H](N[C@@H](c1ccccc1)C(F)(F)F)C(=O)N[C@@H](CCC#N)CNc1ccc(N2CCOCC2)cc1 [Compound 94]

# Further lines, the compound ahead of its results:
row,Structure (SMILES),IC50 [nM]
1,CC[C@@H](CNc1ccc(OCCS(C)(=O)=O)cc1OC)NC(=O)[C@H](CC(C)C)N[C@@H](c1ccc(S(C)(=O)=O)cc1)C(F)(F)F [Compound 40],3.16 to 31.6
2,CC[C@@H](CNc1ccc(OCCS(C)(=O)=O)cc1OC)NC(=O)[C@H](CC(C)C)N[C@@H](c1ccc(=O)[nH]c1)C(F)(F)F [Compound 41],≤ 3.16
3,CC[C@@H](CNc1ccc(OCCO)cc1OC)NC(=O)[C@H](CC(C)(C)F)N[C@@H](c1ccccc1)C(F)(F)F [Compound 42],≤ 3.16
4,CC[C@@H](CNc1ccc(OC)cc1OC)NC(=O)[C@H](CC(C)C)N[C@@H](c1ccc(=O)n(C)c1)C(F)(F)F [Compound 44],3.16 to 31.6
5,CC[C@@H](CNc1ccc(-c2ccccc2)cc1)NC(=O)[C@H](CC(C)C)N[C@@H](c1ccccc1)C(F)(F)F [Compound 45],31.6 to 10000
6,CC[C@@H](CNc1ccc(-n2cccn2)cc1)NC(=O)[C@H](CC(C)C)N[C@@H](c1ccccc1)C(F)(F)F [Compound 47],31.6 to 10000
7,CC[C@@H](CNc1ccc(-n2cccn2)cc1)NC(=O)[C@H](CC(C)C)N[C@@H](c1ccc(OC)nc1)C(F)(F)F [Compound 48],31.6 to 10000
8,CCOC(=O)C1CCN(c2ccc(NC[C@H](CC)NC(=O)[C@H](CC(C)C)N[C@@H](c3ccccc3)C(F)(F)F)cc2)CC1 [Compound 49],≤ 3.16
9,CCOC(=O)C1CCN(c2ccc(NC[C@H](CC)NC(=O)[C@H](CC(C)C)N[C@@H](c3ccc(OC)nc3)C(F)(F)F)cc2)CC1 [Compound 50],≤ 3.16
10,CC[C@@H](CNc1ccc(N2C[C@@H](C)O[C@@H](C)C2)cc1)NC(=O)[C@H](CC(C)C)N[C@@H](c1ccccc1)C(F)(F)F [Compound 51],≤ 3.16
11,CC[C@@H](CNc1ccc(N2C[C@@H](C)O[C@@H](C)C2)cc1)NC(=O)[C@H](CC(C)C)N[C@@H](c1ccc(OC)nc1)C(F)(F)F [Compound 52],≤ 3.16
12,CC[C@@H](CNc1ccc(N2CCCC2=O)cc1)NC(=O)[C@H](CC(C)C)N[C@@H](c1ccccc1)C(F)(F)F [Compound 53],3.16 to 31.6
13,CC[C@@H](CNc1ccc(N2CCCC2=O)cc1)NC(=O)[C@H](CC(C)C)N[C@@H](c1ccc(OC)nc1)C(F)(F)F [Compound 54],3.16 to 31.6
14,CCOC(=O)C1CCN(c2ccc(NC[C@H](CC)NC(=O)[C@H](CC(C)(C)F)N[C@@H](c3ccccc3)C(F)(F)F)cc2)CC1 [Compound 55],≤ 3.16
15,CC[C@@H](CNc1ccc(N2CCO[C@@H](C(=O)OC)C2)cc1)NC(=O)[C@H](CC(C)C)N[C@@H](c1ccccc1)C(F)(F)F [Compound 56],≤ 3.16
16,CC[C@@H](CNc1ccc(OC)cc1OC)NC(=O)[C@H](Cc1ccccc1)N[C@@H](c1ccccc1)C(F)(F)F [Compound 57],31.6 to 10000
17,CC[C@@H](CNc1ccc(N2CCOCC2)cc1)NC(=O)[C@H](Cc1ccccc1)N[C@@H](c1ccccc1)C(F)(F)F [Compound 58],31.6 to 10000
18,CC[C@@H](CNc1ccc(OC)cc1OC)NC(=O)[C@H](CC(C)(C)C)N[C@@H](c1ccccc1)C(F)(F)F [Compound 59],≤ 3.16
19,CC[C@@H](CNc1ccc(OC)cc1OC)NC(=O)[C@@H](N[C@@H](c1ccccc1)C(F)(F)F)[C@@H](C)CC [Compound 60],3.16 to 31.6
20,CC[C@@H](CNc1ccc(OC)cc1OC)NC(=O)[C@@H](N[C@@H](c1ccccc1)C(F)(F)F)C1CCCCC1 [Compound 61],31.6 to 10000
21,CC[C@@H](CNc1ccc(OC)cc1OC)NC(=O)[C@H](Cc1ccccc1)N[C@@H](c1cccs1)C(F)(F)F [Compound 62],31.6 to 10000
22,COc1ccc(NC[C@H](CC(C)C)NC(=O)[C@H](Cc2ccccc2)N[C@@H](c2ccccc2)C(F)(F)F)c(OC)c1 [Compound 63],31.6 to 10000
